# Reference: patent US10294248B2, “Beta-lactamase inhibitors” (VenatoRx Pharmaceuticals, Inc., priority 2013, dated 2019)
# Experiments:
# [1] = molecular target: T1, p99 AmpC β-lactamase (Class C) (Enterobacter cloacae, UniProt P05364); assay: β-Lactamase inhibition, p99 AmpC; assay type: biochemical
# T1 construct: made in house; host or cells: E. coli BL21(DE3)
# [2] = molecular target: T2, KPC-2 β-lactamase (Class A carbapenemase) (Klebsiella pneumoniae, UniProt Q9F663); assay: β-Lactamase inhibition, KPC-2; assay type: biochemical; details: imipenem substrate, 300 nm; 15 min preincubation at 37° C., PBS pH 7.4
# T2 construct: made in house; host or cells: E. coli BL21(DE3)
# T2 sequence (Q9F663 25-293, looked up): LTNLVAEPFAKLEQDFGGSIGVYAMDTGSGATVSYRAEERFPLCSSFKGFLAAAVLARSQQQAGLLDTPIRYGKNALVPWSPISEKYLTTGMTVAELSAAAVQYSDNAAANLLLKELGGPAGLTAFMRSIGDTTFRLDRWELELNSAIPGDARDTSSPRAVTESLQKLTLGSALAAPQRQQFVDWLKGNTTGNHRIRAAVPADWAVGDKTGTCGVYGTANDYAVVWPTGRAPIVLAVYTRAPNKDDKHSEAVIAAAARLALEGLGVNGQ
# In short: (§1)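 Compounds are mixed with purified, untagged recombinant β-lactamase and held 15 min at 37 °C. Substrate is then added: nitrocefin (100 μM final) for OXA-1, imipenem for KPC-2, cefotaxime for SHV-5. Absorbance is followed immediately, and percent inhibition per concentration gives the IC50.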
# [3] = molecular target: T3, VIM-2 metallo-β-lactamase (Class B) (Pseudomonas aeruginosa, UniProt Q9K2N0); assay: β-Lactamase inhibition, VIM-2; assay type: biochemical; details: nitrocefin 100 μM, 486 nm; 15 min preincubation at 37° C., PBS pH 7.4
# T3 construct: made in house; host or cells: E. coli BL21(DE3)
# In short: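 First, VIM-2 purified by repeated anion exchange at pH 7.5 is mixed with inhibitor and held 15 min at 37 °C. Next, nitrocefin (final 100 μM) is dispensed and absorbance at 486 nm monitored immediately for 10 min. Rates versus uninhibited controls give IC50.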
# [4] = molecular target: T4, SHV-5 β-lactamase (Class A ESBL) (Klebsiella pneumoniae, UniProt P0A3M1); assay: β-Lactamase inhibition, SHV-5; assay type: biochemical
# T4 construct: made in house; host or cells: E. coli BL21(DE3)
# T4 sequence (P0A3M1 22-286): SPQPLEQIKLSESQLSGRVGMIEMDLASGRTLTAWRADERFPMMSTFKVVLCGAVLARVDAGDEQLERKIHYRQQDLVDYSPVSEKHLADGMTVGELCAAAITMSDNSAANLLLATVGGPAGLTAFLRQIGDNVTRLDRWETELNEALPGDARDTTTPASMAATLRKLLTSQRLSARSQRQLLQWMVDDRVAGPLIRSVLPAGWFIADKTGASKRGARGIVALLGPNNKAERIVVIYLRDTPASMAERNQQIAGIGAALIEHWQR
# In short: as §1
# [5] = test system: S. aureus MSSA-7 producing penicillinase PC-1; assay: Broth microdilution MIC, S. aureus MSSA-7 PC-1; assay type: cell-based; details: fixed 4 μg/mL piperacillin; CAMHB, 16-20 hours at 37° C.
# In short: (§2)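 Strains were grown 3-5 h in cation-adjusted Mueller Hinton broth, then inoculated per CLSI into plates holding compound dilutions (32 to 0.25 μg/ml, 2-fold) plus a β-lactam fixed at 4 μg/ml. Plates were incubated 16-20 h at 37° C before visual MIC reading.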
# [6] = test system: K. pneumoniae A-1797 expressing KPC-2 and VIM-4; assay: Broth microdilution MIC, K. pneumoniae A-1797 KPC-2/VIM-4; assay type: cell-based; details: fixed 4 μg/mL meropenem; CAMHB, 16-20 hours at 37° C.
# In short: as §2
# [7] = test system: K. pneumoniae 156319 expressing KPC-3; assay: Broth microdilution MIC, K. pneumoniae 156319 KPC-3; assay type: cell-based; details: fixed 4 μg/mL meropenem; CAMHB, 16-20 hours at 37° C.
# In short: as §2
# [8] = test system: P. aeruginosa Ps296 expressing VIM-2; assay: Broth microdilution MIC, P. aeruginosa Ps296 VIM-2; assay type: cell-based; details: fixed 4 μg/mL meropenem; CAMHB, 16-20 hours at 37° C.
# In short: as §2
# [9] = molecular target: T5, OXA-1 β-lactamase (Class D oxacillinase) (Escherichia coli, UniProt P13661); assay: β-Lactamase inhibition, OXA-1; assay type: biochemical; details: nitrocefin 100 μM, 486 nm; 15 min preincubation at 37° C., PBS pH 7.4
# T5 construct: made in house; host or cells: E. coli BL21(DE3)
# T5 sequence (P13661 26-276): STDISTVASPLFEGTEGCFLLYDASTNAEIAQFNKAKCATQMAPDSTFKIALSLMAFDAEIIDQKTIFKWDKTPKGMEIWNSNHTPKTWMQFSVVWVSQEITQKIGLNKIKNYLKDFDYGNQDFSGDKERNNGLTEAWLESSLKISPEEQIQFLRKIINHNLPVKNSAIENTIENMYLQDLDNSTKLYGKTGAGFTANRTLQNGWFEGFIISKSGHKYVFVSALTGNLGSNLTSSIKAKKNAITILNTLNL
# Procedure: For SHV-5, Kpc-2, p99AmpC and OXA-1 β-lactamases, E. coli BL21(DE3) bacterial cells carrying expression plasmids (expressed as native untagged proteins) for the individual β-lactamases were grown in 1 L of Superbroth (Teknova Inc. Hollister, Calif.) supplemented with 100 μg/ml kanamycin selection and 1×5052 (0.5% glycerol, 0.05% glucose and 0.2% α-lactose) at 35° C. for 18-20 hours. Cells were harvested by centrifugation (4,000×g, 4° C., 20 min), resuspended in 50 ml of 10 mM HEPES pH 7.5 ( 1/20 of the initial volume). The cells were lysed by sonication (5 pulses of 45 seconds) at 45 W on ice. The lysates were clarified by centrifugation at 10,000×g for 40 minutes at 4° C. Samples were diluted 5-fold in 50 mM sodium acetate pH 5.0, stored overnight at 4° C., after which they were centrifuged at 10,000×g for 30 minutes to clarify, and filtered through 0.45 μm filters. The samples were loaded onto a 5 ml Capto S sepharose cation exchange column (GE Healthcare) pre-equilibrated with 50 mM sodium acetate pH 5.0. The column was washed with 5 column volumes of 50 mM sodium acetate pH 5.0 to wash out unbound protein and a linear gradient of NaCl (0 to 500 mM) was used to elute the protein (over 16 CV) from the column. Fractions were assayed for β-lactamase activity using Centa (Calbiochem, Gibbstown, N.J.) or Nitrocefin (EMD Millipore chemicals, Darmstadt, Germany) as a reporter β-lactamase substrate for activity in the isolated fractions. Active fractions were pooled, concentrated and further purified by gel filtration chromatography on a Superdex 75 prep grade gel filtration column (GE Healthcare, Piscataway, N.J.) pre-equilibrated in 50 mM Hepes pH 7.5, 150 mM NaCl. Active fractions were pooled concentrated, quantitated by BCA protein determination (Thermo Scientific, Rockford, Ill.), dialyzed into PBS and frozen at −80° C. in 20% glycerol until use.
# An equal volume of diluted enzyme stock was added, and the plates were incubated at 37° C. for 15 min. Nitrocefin was used as substrate for p99 AmpC, VIM-2 and OXA-1 and dispensed into each well at a final concentration of 100 μM. Absorbance at 486 nm was immediately monitored for 10 min using a Biotek Powerwave XS2 microplate spectrophotometer using the GEN5 software package (Biotek Instruments, Winooski Vt.). In an analogous fashion, imipenem was used as substrate for Kpc-2 and Cefotaxime was used for SHV-5, while changes in absorbance upon hydrolysis of the β-lactam ring were monitored at 300 nm and 260 nm respectively in UV-transparent 96-well microtiter assay plates. Maximum rates of hydrolysis were compared to those in control wells (without inhibitors), and percentages of enzyme inhibition were calculated for each concentration of inhibitor. The concentration of inhibitor needed to reduce the initial rate of hydrolysis of substrate by 50% (IC50) was calculated as the residual activity of β-lactamase at 486 nm using GraFit version 7 kinetics software package (Erithacus Software, Surrey, UK).
# Using the methodology described above, examples of the current invention were evaluated for their ability to inhibit β-lactamase enzymes from all four Ambler classifications (A through D). […] NT=Not tested.
# [10] = test system: E. coli ESBL4 expressing CTX-M-15; assay: Broth microdilution MIC, E. coli ESBL4 CTX-M-15; assay type: cell-based; details: fixed 4 μg/mL ceftazidime; CAMHB, 16-20 hours at 37° C.
# In short: as §2
# [11] = test system: E. cloacae 144200 expressing Class C P99 AmpC; assay: Broth microdilution MIC, E. cloacae 144200 p99 AmpC; assay type: cell-based; details: fixed 4 μg/mL ceftazidime; CAMHB, 16-20 hours at 37° C.
# In short: as §2
# T1 sequence (P05364 21-381): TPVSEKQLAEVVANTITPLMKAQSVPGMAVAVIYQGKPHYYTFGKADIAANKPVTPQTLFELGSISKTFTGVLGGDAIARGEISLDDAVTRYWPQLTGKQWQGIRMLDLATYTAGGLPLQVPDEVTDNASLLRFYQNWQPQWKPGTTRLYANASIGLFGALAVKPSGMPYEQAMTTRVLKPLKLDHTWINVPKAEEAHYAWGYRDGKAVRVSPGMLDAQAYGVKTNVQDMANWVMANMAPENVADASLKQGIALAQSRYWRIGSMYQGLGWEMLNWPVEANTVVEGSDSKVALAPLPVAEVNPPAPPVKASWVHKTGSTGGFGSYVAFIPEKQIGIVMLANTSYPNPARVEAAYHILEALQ
SMILES,IC50 [1],IC50 [2],IC50 [3],IC50 [4],"MIC of example compound in presence of fixed β-lactam: Fixed Pip, S. aureus MSSA-7 PC-1 [5]","MIC of example compound in presence of fixed β-lactam: Fixed Mero, K. P. A-1797 KPC-2 VIM-4 [6]","MIC of example compound in presence of fixed β-lactam: Fixed Mero, K. P. 156319 KPC-3 [7]","MIC of example compound in presence of fixed β-lactam: Fixed Mero, P. aerug. Ps296 VIM-2 [8]",IC50 [9],"MIC of example compound in presence of fixed β-lactam: Fixed CAZ, E. coli ESBL4 CTX-M-15 [10]","MIC of example compound in presence of fixed β-lactam: Fixed CAZ, E. cl. 144200 p99 AmpC [11]"
"O=C(CN[C@@H]1CCNC1)N[C@H]1Cc2cccc(C(=O)O)c2OB1O [Example 9, 2-Hydroxy-3-[2-(pyrrolidin-3-ylamino)-acetylamino]-3,4-dihydro-2H-benzo[e][1,2]oxaborinine-8-carboxylic acid]",< 100 nM,< 100 nM,10000 to 100000 nM,< 100 nM,C (the MIC in the presence of <4 μg/mL of a β-lactamase inhibitor),A (an MIC of the fixed β-lactam antibiotic in the presence of >32 μg/mL of a β-lactamase inhibitor),C (the MIC in the presence of <4 μg/mL of a β-lactamase inhibitor),A (an MIC of the fixed β-lactam antibiotic in the presence of >32 μg/mL of a β-lactamase inhibitor),< 100 nM,C (the MIC in the presence of <4 μg/mL of a β-lactamase inhibitor),C (the MIC in the presence of <4 μg/mL of a β-lactamase inhibitor)
"N[C@@H]1CCCN(CC(=O)N[C@H]2Cc3cccc(C(=O)O)c3OB2O)C1 [Example 10, 3-[2-(R-3-Amino-piperidin-1-yl)-acetylamino]-2-hydroxy-3,4-dihydro-2H-benzo[e][1,2]oxaborinine-8-carboxylic acid]",< 100 nM,100 to 1000 nM,1000 to 10000 nM,< 100 nM,B (the MIC in the presence of between 8 and 32 μg/mL of a β-lactamase inhibitor),C (the MIC in the presence of <4 μg/mL of a β-lactamase inhibitor),C (the MIC in the presence of <4 μg/mL of a β-lactamase inhibitor),A (an MIC of the fixed β-lactam antibiotic in the presence of >32 μg/mL of a β-lactamase inhibitor),100 to 1000 nM,C (the MIC in the presence of <4 μg/mL of a β-lactamase inhibitor),C (the MIC in the presence of <4 μg/mL of a β-lactamase inhibitor)
"N[C@H]1CCCN(CC(=O)N[C@H]2Cc3cccc(C(=O)O)c3OB2O)C1 [Example 11, 3-[2-(S-3-Amino-piperidin-1-yl)-acetylamino]-2-hydroxy-3,4-dihydro-2H-benzo[e][1,2]oxaborinine-8-carboxylic acid]",< 100 nM,100 to 1000 nM,1000 to 10000 nM,< 100 nM,A (an MIC of the fixed β-lactam antibiotic in the presence of >32 μg/mL of a β-lactamase inhibitor),A (an MIC of the fixed β-lactam antibiotic in the presence of >32 μg/mL of a β-lactamase inhibitor),C (the MIC in the presence of <4 μg/mL of a β-lactamase inhibitor),A (an MIC of the fixed β-lactam antibiotic in the presence of >32 μg/mL of a β-lactamase inhibitor),100 to 1000 nM,C (the MIC in the presence of <4 μg/mL of a β-lactamase inhibitor),C (the MIC in the presence of <4 μg/mL of a β-lactamase inhibitor)
"O=C(CN1CCC(O)CC1)N[C@H]1Cc2cccc(C(=O)O)c2OB1O [Example 12, 2-Hydroxy-3-[2-(4-hydroxy-piperidin-1-yl)-acetylamino]-3,4-dihydro-2H-benzo[e][1,2]oxaborinine-8-carboxylic acid]",< 100 nM,< 100 nM,100 to 1000 nM,< 100 nM,C (the MIC in the presence of <4 μg/mL of a β-lactamase inhibitor),B (the MIC in the presence of between 8 and 32 μg/mL of a β-lactamase inhibitor),C (the MIC in the presence of <4 μg/mL of a β-lactamase inhibitor),B (the MIC in the presence of between 8 and 32 μg/mL of a β-lactamase inhibitor),< 100 nM,C (the MIC in the presence of <4 μg/mL of a β-lactamase inhibitor),C (the MIC in the presence of <4 μg/mL of a β-lactamase inhibitor)
